Reference: patent US9290777B2, “Putative cytokinin receptor and methods for use thereof” (NATIONAL UNIVERSITY OF SINGAPORE, priority 2007, dated 2016)
Entries after “also recorded” stand apart in the source; their conditions may differ.

Columns and labels:
[1] = test system: tobacco genome in suspension cultures; details: relative to untreated material; cited from earlier work
purified TAP-HOG1 [2] = target: T1, purified TAP-HOG1 (Arabidopsis thaliana, UniProt O23255); test: biochemical; format: binding
T1 construct: Protein A (ProtA part of the TAP tag, TEV site between ProtA and CBP) (N, cleaved yes); made in house; host or cells: transgenic Arabidopsis thaliana harbouring 35S:TAP-HOG1
Experimental: (§1) Cytokinin binding affinity and thermodynamic analysis of the interaction between HOG1 and cytokinins was examined by ITC (MCSITC, Microcal, Northampton, USA). Three naturally occurring cytokinins (zeatin, benzyladenine and isopentenyl adenine) and thidiazuron (an urea-derived synthetic cytokinin) were used. Additionally, adenosine and NAD were used as control molecules to verify the binding specificity of HOG1 to cytokinins. Data were analyzed by MICROCAL ORIGIN version 2.9 using the best-fit, nonlinear least-squares method for one binding site. The binding stoichiometry (n), and association constant (KA) were calculated from the fitted curves. Subsequently, KD was calculated as 1/KA. Raw heat data were corrected to baseline drift obtained from injections of 0.1 μM purified AHP1 into the sample cell containing 2 μM purified TAP-HOG1. Binding isotherms were created by plotting the heat peak areas against the molar ratio of AHP1 added to HOG1.
Cytokinin binding affinity and thermodynamic analysis of the interaction between HOG1 and cytokinins was examined by ITC (MCSITC, Microcal, Northampton, USA). TAP-HOG1 fusion protein was purified using published protocols (Forler et al. supra) from transgenic Arabidopsis plants harboring the 35S:TAP-HOG1 construct. 0.01 μM benzyladenine (a naturally occurring cytokinin) and 0.1 μM of purified TAP-HOG1 protein were used for each ITC assay with 25 injections (each injection of 2 μl at […] intervals at 37° C.). Data were analyzed with MICROCAL ORIGIN version 2.9 using the best-fit, nonlinear least-squares method for one binding site. The binding stoichiometry (n), and association constant (KA) were calculated from the fitted curves. Subsequently, KD was calculated as 1/KA.

[3] = test system: HOG1 anti-sense suppression (AS) line 12 plants; test: Exogenous cytokinin spray on HOG1 anti-sense suppression line, phenotype; format: in vivo, Arabidopsis thaliana; details: 0.01 μM spray on alternate days over four weeks
Experimental: Three individual seedlings of OE line 6 and AS line 12 were sprayed on alternate days with zeatin or kinetin (0.01 μM), over a period of four weeks. Two WT plants were similarly treated for comparison. […] E) The control OE lines bolt at 4 leaf stage. B) and D) Three individuals of OE line 6 sprayed with zeatin and kinetin respectively, show bolting only after they have reached the 6-7 leaf stage. […] (Note that panels A, B, E and F are in the main FIG. 2 as panels G, H, I and J, and these are included here for ease of comparison only).

[4] = target: T2, recombinant AHP1 with six-His and thioredoxin tags, expressed in E. coli (Arabidopsis thaliana, UniProt Q9ZNV9 1-154); test: ITC; purified AHP1 injected into a cell containing purified TAP-HOG1
T2 construct: This is the form used in ITC; also called purified AHP1; Arabidopsis histidine phosphotransfer protein 1; not shown: thioredoxin tag and six-His tag from the vector PET32EK/LIC (Novagen)
T2 sequence (looked up): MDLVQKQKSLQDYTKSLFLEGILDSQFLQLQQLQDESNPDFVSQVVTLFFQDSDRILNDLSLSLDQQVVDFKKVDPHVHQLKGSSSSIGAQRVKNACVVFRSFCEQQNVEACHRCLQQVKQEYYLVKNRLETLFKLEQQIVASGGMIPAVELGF
Experimental: C) Purification of TAP-HOG1 complex. […] D) SDS-polyacrylamide gel electrophoresis of recombinant AHP1 purification. AHP1 was expressed with six-His and thioredoxin-tags in *E. coli*. Lane 1 has total cell lysate and purified AHP1 with the tags is in lane 2. E) TAP-HOG1 and AHP1 interaction was performed with ITC.
as §1, with “µM” for “μM”

[5] = test system: S-adenosyl homocysteine hydrolase (SAHH) activity; test: SAHH spectrophotometric assay; format: biochemical, Arabidopsis thaliana; details: purified protein
purified TAP-HOG1 [6] = target: T3, purified TAP-HOG1 (Arabidopsis thaliana, UniProt O23255); test: TAP-HOG1 and AHP1 interaction by ITC; format: binding; details: recombinant AHP1 injected into purified TAP-HOG1, read-out: KD (dissociation constant)
T3 construct: Protein A (ProtA part of the TAP tag, TEV site between ProtA and CBP) (N, cleaved yes); made in house; host or cells: TAP-HOG1: transgenic Arabidopsis thaliana (35S:TAP-HOG1); AHP1: E. coli BL21 (PET32EK/LIC)
T3 sequence (O23255 whole entry, looked up): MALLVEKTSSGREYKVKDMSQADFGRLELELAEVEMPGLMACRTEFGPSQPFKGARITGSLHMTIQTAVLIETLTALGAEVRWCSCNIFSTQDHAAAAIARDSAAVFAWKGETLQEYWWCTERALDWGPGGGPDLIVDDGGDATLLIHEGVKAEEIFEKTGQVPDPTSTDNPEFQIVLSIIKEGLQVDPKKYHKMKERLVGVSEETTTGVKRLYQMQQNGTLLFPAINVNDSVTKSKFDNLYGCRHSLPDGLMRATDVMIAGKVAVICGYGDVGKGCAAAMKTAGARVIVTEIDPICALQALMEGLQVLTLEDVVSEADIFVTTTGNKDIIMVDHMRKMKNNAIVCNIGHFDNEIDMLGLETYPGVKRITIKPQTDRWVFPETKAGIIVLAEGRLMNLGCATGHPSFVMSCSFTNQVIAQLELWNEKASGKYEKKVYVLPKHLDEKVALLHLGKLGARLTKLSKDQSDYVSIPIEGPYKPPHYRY
Experimental: as §1
TAP-HOG1 protein complex was purified using the ProtA and CBP tags as described before in Forler et al. (supra). For ProtA pulldown, IgG Sepharose beads (Amersham Biosciences #17-0969-01) and for CBP pulldown Calmodulin affinity resin (Stratagene #214303-52) were used. The purified protein was subjected to SDS-PAGE and blotted to PVDF membranes for Western blot analysis using standard protocols. […]

[7] = ITC, control molecules, purified TAP-HOG1, read-out: KD (dissociation constant)

For `Nc1ncnc2c1ncn2C[C@H](O)CO` [(S)-9-(2,3-dihydroxypropyl)adenine], the “decrease of SAM:SAH ratio at which genome hypomethylation occurred” value [1] is given as 300 folds.

With `NC(=O)c1ccc[n+]([C@@H]2O[C@H](COP(=O)([O-])OP(=O)(O)OC[C@H]3O[C@@H](n4cnc5c(N)ncnc54)[C@H](O)[C@@H]3O)[C@@H](O)[C@H]2O)c1` [NAD+] the Kd (purified TAP-HOG1 [2]; [7]) was 39500 nM.

With `Nc1ncnc2nc[nH]c12` [adenine] the Kd (purified TAP-HOG1 [2]; [7]) was 2100 nM.

For `c1coc(CNc2ncnc3[nH]cnc23)c1` [kinetin], the “phenotype compared with control AS lines” value [3] was “did not show any significant difference in phenotype”.

For `O=C(Nc1ccccc1)Nc1cnns1` [thidiazuron], the “binding to HOG1” value (purified TAP-HOG1 [2]; ITC, performed as with zeatin) was “does not bind”.

With `C/C(=C\CNc1ncnc2[nH]cnc12)CO` [zeatin] the Kd (purified TAP-HOG1 [2]) was 16.9 to 20.6 nM and the “phenotype compared with control AS lines” value [3] was “did not show any significant difference in phenotype”.

B1: purified TAP-HOG1 protein (HOG1 retaining the CBP portion of the TAP tag, 60 kDa) (receptor, not shown: small tags and cut ends)
chain: MALIVEKTSGGREYKVKDMSQADFGRLELELAEVEMPGLMACRTEFGPAQPFKGARITGSLHMTIQTAVLIETLTALGAEVRWCSCNIFSTQDHAAAAIARDSAAVFAWKGETLQEYWWCTERALDWGPGGGPDLIVDDGGDATLLIHEGVKAEEIFEKTGQVPDPTSTDNPEFQIVLSIIKEGLQVDPKKYHKMKGRLVGVSEETTTGVKRLYQMQESGALLFPAINVNDSVTKSKFDNLYGCRHSLPDGLMRATDVMIAGKVAVICGYGDVGKGCAAAMKTAGARVIVTEIDPICALQAMMEGLQVLTLEDVVSEADIFVTTTGNKDIIMVDHMRKMKNNAIVCNIGHFDNEIDMQGLETFPGVKRITIKPQTDRWVFPDTKSGIIVLAEGRLMNLGCATGHPSFVMSCSFTNQVIAQLELWNEKSSGKYEKKVYVLPKHLDEKVAALHLGKLGAKLTKLTKDQSDYVSIPIEGPYKPPHYRY
notes: Purified from transgenic Arabidopsis thaliana carrying 35S:TAP-HOG1, using the Prot A and CBP tags; After purification it keeps only the CBP portion of the tag (60 kDa; HOG1 alone would be 56 kDa); also called Homology-dependent gene silencing 1
In the case of B1, the Kd [4] is reported as 23.8 nM.

B2: TAP-HOG1: TAP-tagged HOG1 polypeptide (SEQ ID NO: 1) purified from transgenic Arabidopsis thaliana (protein, listed as Arabidopsis thaliana)
chain: B1 chain
modifications: TAP tag; HOG1 Arabidopsis thaliana
In the case of B2, the SAHH enzyme activity [5] is reported as “lacks measurable SAHH activity; also recorded: lacks SAHH enzyme activity”.

B3: AHP1: recombinant Arabidopsis histidine phosphotransfer protein 1 with six-HIS and thioredoxin tags, expressed in E. coli (protein)
chain: T2 sequence (looked up)
modifications: left off: large carriers
notes: recombinant Arabidopsis histidine phosphotransfer protein 1 with six-HIS and thioredoxin tags, expressed in E. coli
B3 gave a Kd (purified TAP-HOG1 [6]) of 23.8 nM.
